What follows are compounds tested against human chemokine receptor CXCR7 (Homo sapiens (Human), UniProt P25106) (assay: Tango CXCR7-bla U2OS beta-arrestin recruitment assay (beta-lactamase reporter, FRET), antagonism of CXCL12/SDF1-α). Details: antagonistic effect on CXCR7; Tango CXCR7-bla U2OS cells, CXCL12/SDF1-α at its EC80.
Sequence of human chemokine receptor CXCR7 (P25106 whole entry): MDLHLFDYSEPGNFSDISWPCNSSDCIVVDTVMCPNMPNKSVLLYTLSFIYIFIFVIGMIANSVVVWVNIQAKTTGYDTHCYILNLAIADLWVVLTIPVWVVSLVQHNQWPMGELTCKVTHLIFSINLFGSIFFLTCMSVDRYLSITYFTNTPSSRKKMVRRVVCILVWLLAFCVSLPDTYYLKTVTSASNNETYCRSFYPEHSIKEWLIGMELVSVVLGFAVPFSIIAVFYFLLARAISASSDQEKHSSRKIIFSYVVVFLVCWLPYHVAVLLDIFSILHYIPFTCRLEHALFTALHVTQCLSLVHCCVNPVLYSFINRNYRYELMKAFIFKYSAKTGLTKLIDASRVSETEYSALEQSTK
Assay type: cell-based
O=C(N[C@@H]1CCN(C2CCCCC2)C[C@H]1C(=O)NC[C@@H](O)c1ccccc1)c1cc(-c2ccc(F)cc2F)on1 (relative stereo) [Example 1.073, (3R*,4R*)-1-Cyclohexyl-4-{[5-(2,4-difluoro-phenyl)-isoxazole-3-carbonyl]-amino}-piperidine-3-carboxylic acid ((S)-2-hydroxy-2-phenyl-ethyl)-amide] showed an IC50 of 118 nM.
Compound CC(CO)NC(=O)[C@@H]1CN(C2CCCCC2)CC[C@H]1NC(=O)c1cc(-c2ccc(F)cc2F)on1 (relative stereo) [Example 1.076, (3R*,4R*)-1-Cyclohexyl-4-{[5-(2,4-difluoro-phenyl)-isoxazole-3-carbonyl]-amino}-piperidine-3-carboxylic acid ((1RS)-2-hydroxy-1-methyl-ethyl)-amide] has an IC50 of 604 nM.
In the case of CC(NC(=O)[C@@H]1CN(C2CCCCC2)CC[C@H]1NC(=O)c1cc(-c2ccc(F)cc2F)on1)C(F)F (relative stereo) [Example 1.077, (3R*,4R*)-1-Cyclohexyl-4-{[5-(2,4-difluoro-phenyl)-isoxazole-3-carbonyl]-amino}-piperidine-3-carboxylic acid ((1RS)-2,2-difluoro-1-methyl-ethyl)-amide], the IC50 is reported as 443 nM.
Compound CC(NC(=O)[C@@H]1CN(C2CCCCC2)CC[C@H]1NC(=O)c1cc(-c2ccc(F)cc2F)on1)C1CCC1 (relative stereo) [Example 1.078, (3R*,4R*)-1-Cyclohexyl-4-{[5-(2,4-difluoro-phenyl)-isoxazole-3-carbonyl]-amino}-piperidine-3-carboxylic acid ((1RS)-1-cyclobutyl-ethyl)-amide] has an IC50 of 193 nM.
CC(CF)NC(=O)[C@@H]1CN(C2CCCCC2)CC[C@H]1NC(=O)c1cc(-c2ccc(F)cc2F)on1 (relative stereo) [Example 1.082, (3R*,4R*)-1-Cyclohexyl-4-{[5-(2,4-difluoro-phenyl)-isoxazole-3-carbonyl]-amino}-piperidine-3-carboxylic acid ((1RS)-2-fluoro-1-methyl-ethyl)-amide] was tested, and the IC50 was 445 nM.
For CCOCC(C)NC(=O)[C@@H]1CN(C2CCCCC2)CC[C@H]1NC(=O)c1cc(-c2ccc(F)cc2F)on1 (relative stereo) [Example 1.083, (3R*,4R*)-1-Cyclohexyl-4-{[5-(2,4-difluoro-phenyl)-isoxazole-3-carbonyl]-amino}-piperidine-3-carboxylic acid ((1RS)-2-ethoxy-1-methyl-ethyl)-amide], the IC50 was 76 nM.
Compound CC1(NC(=O)[C@@H]2CN(C3CCCCC3)CC[C@H]2NC(=O)c2cc(-c3ccc(F)cc3F)on2)CCOC1 (relative stereo) [Example 1.084, (3R*,4R*)-1-Cyclohexyl-4-{[5-(2,4-difluoro-phenyl)-isoxazole-3-carbonyl]-amino}-piperidine-3-carboxylic acid ((3RS)-3-methyl-tetrahydro-furan-3-yl)-amide] has an IC50 of 223 nM.
Cc1nnc(C(C)NC(=O)[C@@H]2CN(C3CCCCC3)CC[C@H]2NC(=O)c2cc(-c3ccc(F)cc3F)on2)o1 (relative stereo) [Example 1.085, (3R*,4R*)-1-Cyclohexyl-4-{[5-(2,4-difluoro-phenyl)-isoxazole-3-carbonyl]-amino}-piperidine-3-carboxylic acid [(1RS)-1-(5-methyl-[1,3,4]oxadiazol-2-yl)-ethyl]-amide] showed an IC50 of 268 nM.
CC(NC(=O)[C@@H]1CN(C2CCCCC2)CC[C@H]1NC(=O)c1cc(-c2ccc(F)cc2F)on1)c1ncc(F)cc1F (relative stereo) [Example 1.086, (3R*,4R*)-1-Cyclohexyl-4-{[5-(2,4-difluoro-phenyl)-isoxazole-3-carbonyl]-amino}-piperidine-3-carboxylic acid [(1RS)-1-(3,5-difluoro-pyridin-2-yl)-ethyl]-amide] showed an IC50 of 154 nM.
CC1(NC(=O)[C@@H]2CN(C3CCCCC3)CC[C@H]2NC(=O)c2cc(-c3ccc(F)cc3F)on2)CC(F)(F)C1 (relative stereo) [Example 1.087, rac-(3R*,4R*)-1-Cyclohexyl-4-{[5-(2,4-difluoro-phenyl)-isoxazole-3-carbonyl]-amino}-piperidine-3-carboxylic acid (3,3-difluoro-1-methyl-cyclobutyl)-amide] showed an IC50 of 943 nM.
For O=C(N[C@@H]1CCN(C2CCCCC2)C[C@H]1C(=O)N1CCC(c2ccccn2)C1)c1cc(-c2ccc(F)cc2F)on1 (relative stereo) [Example 1.089, 5-(2,4-Difluoro-phenyl)-isoxazole-3-carboxylic acid [(3R*,4R*)-1-cyclohexyl-3-((3RS)-3-pyridin-2-yl-pyrrolidine-1-carbonyl)-piperidin-4-yl]-amide], the IC50 was 472 nM.
In the case of C[C@@H](NC(=O)[C@@H]1CN(C2CCCCC2)CC[C@H]1NC(=O)c1cc(-c2ccc(F)cc2F)on1)C1CCC1 (relative stereo) [Example 1.091, (3R*,4R*)-1-Cyclohexyl-4-{[5-(2,4-difluoro-phenyl)-isoxazole-3-carbonyl]-amino}-piperidine-3-carboxylic acid ((R)-1-cyclobutyl-ethyl)-amide], the IC50 is reported as 103 nM.
C[C@@H](NC(=O)[C@@H]1CN(C2CCCCC2)CC[C@H]1NC(=O)c1cc(-c2ccc(F)cc2F)on1)c1ncccc1F (relative stereo) [Example 1.092, (3R*,4R*)-1-Cyclohexyl-4-{[5-(2,4-difluoro-phenyl)-isoxazole-3-carbonyl]-amino}-piperidine-3-carboxylic acid [(R)-1-(3-fluoro-pyridin-2-yl)-ethyl]-amide] showed an IC50 of 1 nM.
Compound C[C@@H](NC(=O)[C@@H]1CN(C2CCCCC2)CC[C@H]1NC(=O)c1cc(-c2ccc(F)cc2F)on1)C(C)(C)C (relative stereo) [Example 1.093, (3R*,4R*)-1-Cyclohexyl-4-{[5-(2,4-difluoro-phenyl)-isoxazole-3-carbonyl]-amino}-piperidine-3-carboxylic acid ((R)-1,2,2-trimethyl-propyl)-amide] has an IC50 of 867 nM.
Work on C[C@@H](NC(=O)[C@@H]1CN(C2CCCCC2)CC[C@H]1NC(=O)c1cc(-c2ccc(F)cc2F)on1)c1ncc(F)cn1 (relative stereo) [Example 1.094, (3R*,4R*)-1-Cyclohexyl-4-{[5-(2,4-difluoro-phenyl)-isoxazole-3-carbonyl]-amino}-piperidine-3-carboxylic acid [(R)-1-(5-fluoro-pyrimidin-2-yl)-ethyl]-amide] yielded an IC50 of 100 nM.
With C[C@@H]1CCC[C@H]1N1CC[C@@H](NC(=O)c2cn(-c3ccc(F)cc3F)nn2)[C@H](C(=O)N(C)C)C1 (relative stereo) [Example 1.098, (3R*,4R*)-4-{[1-(2,4-Difluoro-phenyl)-1H-[1,2,3]triazole-4-carbonyl]-amino}-1-((1RS,2RS)-2-Methyl-cyclopentyl)-piperidine-3-carboxylic acid dimethylamide] the IC50 was 276 nM.
In the case of C[C@@H]1CCC[C@H]1N1CC[C@@H](NC(=O)c2cc(-c3c(F)cc(F)cc3F)on2)[C@H](C(=O)N(C)C)C1 (relative stereo) [Example 1.101, (3R*,4R*)-1-((1RS,2RS)-2-Methyl-cyclopentyl)-4-{[5-(2,4,6-trifluoro-phenyl)-isoxazole-3-carbonyl]-amino}-piperidine-3-carboxylic acid dimethylamide], the IC50 is reported as 45 nM.
C[C@@H]1CCC[C@H]1N1CC[C@@H](NC(=O)c2cc(-c3c(F)cc(F)cc3F)on2)[C@H](C(=O)N2CCC2)C1 (relative stereo) [Example 1.108, 5-(2,4,6-Trifluoro-phenyl)-isoxazole-3-carboxylic acid [(3R*,4R*)-3-(azetidine-1-carbonyl)-1-((1RS,2RS)-2-methyl-cyclopentyl)-piperidin-4-yl]-amide] showed an IC50 of 581 nM.
COCC(C)(C)NC(=O)[C@@H]1CN([C@@H]2CCC[C@H]2C)CC[C@H]1NC(=O)c1cc(-c2c(F)cc(F)cc2F)on1 (relative stereo) [Example 1.114, (3R*,4R*)-1-((1RS,2RS)-2-Methyl-cyclopentyl)-4-{[5-(2,4,6-trifluoro-phenyl)-isoxazole-3-carbonyl]-amino}-piperidine-3-carboxylic acid (2-methoxy-1,1-dimethyl-ethyl)-amide] gave an IC50 of 626 nM.
In the case of C[C@@H](NC(=O)[C@@H]1CN(C2CCCCC2)CC[C@H]1NC(=O)c1cn(-c2ccc(F)cc2F)nn1)c1ccccn1 (relative stereo) [Example 1.117, (3R*,4R*)-1-Cyclohexyl-4-{[1-(2,4-difluoro-phenyl)-1H-[1,2,3]triazole-4-carbonyl]-amino}-piperidine-3-carboxylic acid ((R)-1-pyridin-2-yl-ethyl)-amide], the IC50 is reported as 68 nM.
Work on C[C@@H](NC(=O)[C@@H]1CN(C2CCCC2)CC[C@H]1NC(=O)c1cn(-c2ccc(F)cc2F)nn1)c1ccccn1 (relative stereo) [Example 1.118, (3R*,4R*)-1-Cyclopentyl-4-{[1-(2,4-difluoro-phenyl)-1H-[1,2,3]triazole-4-carbonyl]-amino}-piperidine-3-carboxylic acid ((R)-1-pyridin-2-yl-ethyl)-amide] yielded an IC50 of 36 nM.
C[C@@H](NC(=O)[C@@H]1CN(CC2CC2)CC[C@H]1NC(=O)c1cn(-c2ccc(F)cc2F)nn1)c1ccccn1 (relative stereo) [Example 1.119, (3R*,4R*)-1-Cyclopropylmethyl-4-{[1-(2,4-difluoro-phenyl)-1H-[1,2,3]triazole-4-carbonyl]-amino}-piperidine-3-carboxylic acid ((R)-1-pyridin-2-yl-ethyl)-amide] was tested, and the IC50 was 146 nM.
In the case of C[C@@H](NC(=O)[C@@H]1CN(C2CCCC2)CC[C@H]1NC(=O)c1cc(-c2c(F)cc(F)cc2F)on1)c1ccccn1 (relative stereo) [Example 1.122, (3R*,4R*)-1-Cyclopentyl-4-{[5-(2,4,6-trifluoro-phenyl)-isoxazole-3-carbonyl]-amino}-piperidine-3-carboxylic acid ((R)-1-pyridin-2-yl-ethyl)-amide], the IC50 is reported as 10 nM.
C[C@@H](NC(=O)[C@@H]1CN(CC2CC2)CC[C@H]1NC(=O)c1cc(-c2c(F)cc(F)cc2F)on1)c1ccccn1 (relative stereo) [Example 1.123, (3R*,4R*)-1-Cyclopropylmethyl-4-{[5-(2,4,6-trifluoro-phenyl)-isoxazole-3-carbonyl]-amino}-piperidine-3-carboxylic acid ((R)-1-pyridin-2-yl-ethyl)-amide] gave an IC50 of 15 nM.
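Further: compounds preincubated 15 min before CXCL12 addition, then 22 h at 37 °C, FRET emission ratio read with CCF4-AM substrate after 2 h.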
